Test [1] deals with T1, Casein kinase II subunit alpha' (Homo sapiens, UniProt P19784). The experiment in a line: Inhibition of human CK2 alpha' catalytic subunit expressed in Escherichia coli BL21 (DE3) assessed as [33P]gamma-ATP incorporation into P2B substrate after 15 mins by scintillation counting.
Test [2] deals with T1, Casein kinase II subunit alpha'. The test is described as follows: Inhibition of human CK2 alpha' catalytic subunit expressed in Escherichia coli […] (DE3) assessed as [33P]gamma-ATP incorporation into RRRADDSDDDDD substrate after 15 mins by scintillation counting.
Test [3] has as its target T2, Casein kinase II subunit alpha (Homo sapiens, UniProt P68400). The test is described as follows: Inhibition of human CK2 alpha catalytic subunit expressed in Escherichia coli BL21 (DE3) assessed as [32P]gamma-ATP incorporation into P2B substrate after 15 mins by scintillation counting.
Test [4] concerns the target T2, Casein kinase II subunit alpha. The experiment in a line: Inhibition of human CK2 alpha catalytic subunit expressed in Escherichia coli BL21 (DE3) assessed as [32P]gamma-ATP incorporation into RRRADDSDDDDD substrate after 15 mins by scintillation counting.

T2 sequence (P68400 whole entry): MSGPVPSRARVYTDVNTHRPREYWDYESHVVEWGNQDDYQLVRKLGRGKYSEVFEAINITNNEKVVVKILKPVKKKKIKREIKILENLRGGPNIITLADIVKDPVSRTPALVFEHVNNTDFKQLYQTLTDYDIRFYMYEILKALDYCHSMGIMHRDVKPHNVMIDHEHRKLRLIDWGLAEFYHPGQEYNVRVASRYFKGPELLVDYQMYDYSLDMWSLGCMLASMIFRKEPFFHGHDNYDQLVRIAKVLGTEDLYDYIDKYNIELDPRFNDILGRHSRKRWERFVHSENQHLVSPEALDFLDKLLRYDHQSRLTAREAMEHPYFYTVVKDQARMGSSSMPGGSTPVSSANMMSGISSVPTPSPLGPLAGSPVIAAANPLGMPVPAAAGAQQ
T1 sequence (P19784 whole entry): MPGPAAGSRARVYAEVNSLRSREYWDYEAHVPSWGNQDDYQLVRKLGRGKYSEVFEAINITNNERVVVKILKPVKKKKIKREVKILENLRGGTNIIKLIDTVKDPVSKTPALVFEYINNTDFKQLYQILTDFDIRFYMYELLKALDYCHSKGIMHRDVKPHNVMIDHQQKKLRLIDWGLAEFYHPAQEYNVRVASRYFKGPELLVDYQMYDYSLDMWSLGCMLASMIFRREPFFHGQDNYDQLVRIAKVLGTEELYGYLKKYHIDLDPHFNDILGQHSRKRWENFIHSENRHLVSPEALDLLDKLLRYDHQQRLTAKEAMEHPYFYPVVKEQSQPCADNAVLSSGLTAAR

Take `O=C(O)CCCn1cnc2c(Br)c(Br)c(Br)c(Br)c21`: the Ki in test [1] is 188 nM; in test [2], 195 nM; in test [3], 472 nM; in test [4], 368 nM.

`O=C(O)CSc1nc2c(I)c(I)c(I)c(I)c2[nH]1`: the Ki in test [1] came out at 78 nM; in test [2], 106 nM; in test [3], 110 nM; in test [4] it was 80 nM.

For `O=C(O)Cn1cnc2c(Br)c(Br)c(Br)c(Br)c21`, the Ki came out at 609 nM in test [1], 342 nM in test [2], 798 nM in test [3] and 670 nM in test [4].

Turning to `Ic1c(I)c(I)c2[nH]cnc2c1I`, the Ki was 71 nM in test [1], 21 nM in test [2], 266 nM in test [3] and 43 nM in test [4].

`Cn1c(SCCC(=O)O)nc2c(Br)c(Br)c(Br)c(Br)c21`: the Ki in test [1] was found to be 100 nM; in test [2] it was 55 nM; in test [3], 112 nM; in test [4], 137 nM.

On to `Brc1c(Br)c(Br)c2[nH]cnc2c1Br`, for which the Ki in test [1] turned out to be 270 nM; in test [2], 343 nM.

On to `Cn1c(SCCCC(=O)O)nc2c(Br)c(Br)c(Br)c(Br)c21`, for which the Ki in test [1] came to 83 nM; in test [2] it was 768 nM; in test [3], 88 nM; in test [4], 501 nM.

Turning to `O=C(O)Cn1cnc2c(I)c(I)c(I)c(I)c21`, the Ki in test [1] turned out to be 62 nM; in test [2] it was 324 nM; in test [3], 378 nM; in test [4], 261 nM.

Turning to `CN(C)c1nc2c(Br)c(Br)c(Br)c(Br)c2n1CC(=O)O`, the Ki came to 66 nM in test [1], 21 nM in test [2], 88 nM in test [3] and 83 nM in test [4].

On to `Cn1c(SCC(=O)O)nc2c(Br)c(Br)c(Br)c(Br)c21`, for which the Ki in test [1] worked out at 200 nM; in test [2], 24 nM; in test [3], 143 nM; in test [4], 13 nM.

In the case of `O=C(O)CCCSc1nc2c(Br)c(Br)c(Br)c(Br)c2[nH]1`, the Ki in test [1] stood at 88 nM; in test [2], 44 nM; in test [3], 77 nM; in test [4], 210 nM.

Turning to `O=C(O)CSc1nc2c(Br)c(Br)c(Br)c(Br)c2[nH]1`, the Ki in test [1] worked out at 37 nM; in test [2], 49 nM; in test [3], 106 nM; in test [4], 170 nM.

Turning to `CN(C)c1nc2c(Br)c(Br)c(Br)c(Br)c2n1CCCC(=O)O`, the Ki in test [1] is 139 nM; in test [2], 93 nM; in test [3] it was 860 nM; in test [4], 456 nM.

With `CN(C)c1nc2c(Br)c(Br)c(Br)c(Br)c2n1C`, the Ki was 109 nM in test [1], 35 nM in test [2], 212 nM in test [3] and 154 nM in test [4].

For `O=C(O)CCSc1nc2c(Br)c(Br)c(Br)c(Br)c2[nH]1`, the Ki came out at 35 nM in test [1], 31 nM in test [2], 116 nM in test [3] and 172 nM in test [4].

One may read the Ki as the dissociation constant of the complex between target and ligand, obtained from inhibition or displacement.

The values above are taken from ChEMBL document CHEMBL1926659, “CK2α and CK2α' subunits differ in their sensitivity to 4,5,6,7-tetrabromo- and 4,5,6,7-tetraiodo-1H-benzimidazole derivatives” (Eur J Med Chem, 2012).
